In US10730889B2, “Amido spirocyclic amide and sulfonamide derivatives” (Forma TM, LLC, priority 2012, dated 2020) one finds IC50 data, which are given here for 25 compounds.

The test has as its system A2780 cells. The test can be described thus: In-vitro cell proliferation assay (SRB, 72 hours). The test is classed as cell-based. To be noted: Homo sapiens, A2780, 72 h, A2780 cells, 72 hours, SRB; read-out: Cell Proliferation (IC50).
On to `O=C(NCC1CC12CCN(C(=O)c1ccncc1)CC2)c1cc2ccncc2o1` (stereo not shown) [Example 97, N-[[6-(pyridine-4-carbonyl)-6-azaspiro[2.5]octan-2-yl]methyl]furo[2,3-c]pyridine-2-carboxamide], for which the IC50 is 2 µM.
As for `O=C(NCC1CC12CCN(C(=O)c1ccccn1)CC2)c1cc2ccncc2o1` (stereo not shown) [Example 98, N-[[6-(pyridine-2-carbonyl)-6-azaspiro[2.5]octan-2-yl]methyl]furo[2,3-c]pyridine-2-carboxamide], the IC50 was determined as 2 µM.
Then `O=C(NCC1CC12CCN(C(=O)c1cocn1)CC2)c1cc2ccncc2o1` (stereo not shown) [Example 99, N-[[6-(oxazole-4-carbonyl)-6-azaspiro[2.5]octan-2-yl]methyl]furo[2,3-c]pyridine-2-carboxamide], with 2 µM.
The result for `O=C(NCC1CC12CCN(C(=O)c1nc[nH]n1)CC2)c1cc2ccncc2o1` (stereo not shown) [Example 100, N-[[6-(1H-1,2,4-triazole-3-carbonyl)-6-azaspiro[2.5]octan-2-yl]methyl]furo[2,3-c]pyridine-2-carboxamide] reads 2 µM; that for `O=C(NCC1CC12CCN(C(=O)c1c[nH]cn1)CC2)c1cc2ccncc2o1` (stereo not shown) [Example 101, N-[[6-(1H-imidazole-4-carbonyl)-6-azaspiro[2.5]octan-2-yl]methyl]furo[2,3-c]pyridine-2-carboxamide], 2 µM; that for `O=C(NCC1CC12CCN(C(=O)c1ccncn1)CC2)c1cc2ccncc2o1` (stereo not shown) [Example 102, N-[[6-(pyrimidine-4-carbonyl)-6-azaspiro[2.5]octan-2-yl]methyl]furo[2,3-c]pyridine-2-carboxamide], 2 µM.
The result for `O=C(NCC1CC12CCN(C(=O)c1cccnc1)CC2)c1cc2ccncc2o1` (stereo not shown) [Example 103, N-[[6-(pyridine-3-carbonyl)-6-azaspiro[2.5]octan-2-yl]methyl]furo[2,3-c]pyridine-2-carboxamide] reads 2 µM; that for `O=C(NCC1CC12CCN(C(=O)c1cc[nH]n1)CC2)c1cc2ccncc2o1` (stereo not shown) [Example 104, N-[[6-(1H-pyrazole-3-carbonyl)-6-azaspiro[2.5]octan-2-yl]methyl]furo[2,3-c]pyridine-2-carboxamide], 2 µM; that for `Cn1cnc(C(=O)N2CCC3(CC2)CC3CNC(=O)c2cc3ccncc3o2)c1` (stereo not shown) [Example 105, N-[[6-(1-methylimidazole-4-carbonyl)-6-azaspiro[2.5]octan-2-yl]methyl]furo[2,3-c]pyridine-2-carboxamide], 0.755 µM.
Consider `Cc1n[nH]cc1C(=O)N1CCC2(CC1)CC2CNC(=O)c1cc2ccncc2o1` (stereo not shown) [Example 106, N-[[6-(3-methyl-1H-pyrazole-4-carbonyl)-6-azaspiro[2.5]octan-2-yl]methyl]furo[2,3-c]pyridine-2-carboxamide], for which the IC50 is 0.743 µM.
Take `Cn1nccc1C(=O)N1CCC2(CC1)CC2CNC(=O)c1cc2ccncc2o1` (stereo not shown) [Example 107, N-[[6-(2-methylpyrazole-3-carbonyl)-6-azaspiro[2.5]octan-2-yl]methyl]furo[2,3-c]pyridine-2-carboxamide]: the IC50 worked out at 2 µM.
The result for `Cc1cc(C(=O)N2CCC3(CC2)CC3CNC(=O)c2cc3ccncc3o2)n[nH]1` (stereo not shown) [Example 108, N-[[6-(5-methyl-1H-pyrazole-3-carbonyl)-6-azaspiro[2.5]octan-2-yl]methyl]furo[2,3-c]pyridine-2-carboxamide] reads 0.449 µM; that for `Cn1ccc(C(=O)N2CCC3(CC2)CC3CNC(=O)c2cc3ccncc3o2)n1` (stereo not shown) [Example 109, N-[[6-(1-methylpyrazole-3-carbonyl)-6-azaspiro[2.5]octan-2-yl]methyl]furo[2,3-c]pyridine-2-carboxamide], 0.299 µM; that for `O=C(NCC1CC12CCN(C(=O)c1cccnn1)CC2)c1cc2ccncc2o1` (stereo not shown) [Example 110, N-[[6-(pyridazine-3-carbonyl)-6-azaspiro[2.5]octan-2-yl]methyl]furo[2,3-c]pyridine-2-carboxamide], 2 µM.
For `O=C(NCC1CC12CCN(C(=O)c1cnccn1)CC2)c1cc2ccncc2o1` (stereo not shown) [Example 112, N-[[6-(pyrazine-2-carbonyl)-6-azaspiro[2.5]octan-2-yl]methyl]furo[2,3-c]pyridine-2-carboxamide], the IC50 was 2 µM.
Then `O=C(NCC1CC12CCN(C(=O)c1ccnnc1)CC2)c1cc2ccncc2o1` (stereo not shown) [Example 113, N-[[6-(pyridazine-4-carbonyl)-6-azaspiro[2.5]octan-2-yl]methyl]furo[2,3-c]pyridine-2-carboxamide], with 2 µM.
Then `Cn1cc(C(=O)N2CCC3(CC2)CC3CNC(=O)c2cc3ccncc3o2)cn1` (stereo not shown) [Example 114, N-[[6-(1-methylpyrazole-4-carbonyl)-6-azaspiro[2.5]octan-2-yl]methyl]furo[2,3-c]pyridine-2-carboxamide], with 2 µM.
In the case of `Cc1cc(C(=O)N2CCC3(CC2)CC3CNC(=O)c2cc3ccncc3o2)nn1C` (stereo not shown) [Example 115, N-[[6-(1,5-dimethylpyrazole-3-carbonyl)-6-azaspiro[2.5]octan-2-yl]methyl]furo[2,3-c]pyridine-2-carboxamide], the IC50 came to 0.0376 µM.
Consider `Cc1cc(C(=O)N2CCC3(CC2)CC3CNC(=O)c2cc3ccncc3o2)no1` (stereo not shown) [Example 117, N-[[6-(5-methylisoxazole-3-carbonyl)-6-azaspiro[2.5]octan-2-yl]methyl]furo[2,3-c]pyridine-2-carboxamide], for which the IC50 stood at 0.752 µM.
Then `Cc1nonc1C(=O)N1CCC2(CC1)CC2CNC(=O)c1cc2ccncc2o1` (stereo not shown) [Example 118, N-[[6-(4-methyl-1,2,5-oxadiazole-3-carbonyl)-6-azaspiro[2.5]octan-2-yl]methyl]furo[2,3-c]pyridine-2-carboxamide], with 1.07 µM; and `Cc1ncccc1C(=O)N1CCC2(CC1)CC2CNC(=O)c1cc2ccncc2o1` (stereo not shown) [Example 119, N-[[6-(2-methylpyridine-3-carbonyl)-6-azaspiro[2.5]octan-2-yl]methyl]furo[2,3-c]pyridine-2-carboxamide], with 0.446 µM.
The result for `Cc1ccncc1C(=O)N1CCC2(CC1)CC2CNC(=O)c1cc2ccncc2o1` (stereo not shown) [Example 120, N-[[6-(4-methylpyridine-3-carbonyl)-6-azaspiro[2.5]octan-2-yl]methyl]furo[2,3-c]pyridine-2-carboxamide] reads 0.0928 µM; that for `Cc1cc(C(=O)N2CCC3(CC2)CC3CNC(=O)c2cc3ccncc3o2)ccn1` (stereo not shown) [Example 121, N-[[6-(2-methylpyridine-4-carbonyl)-6-azaspiro[2.5]octan-2-yl]methyl]furo[2,3-c]pyridine-2-carboxamide], 1.09 µM.
The result for `Cc1cnc(C(=O)N2CCC3(CC2)CC3CNC(=O)c2cc3ccncc3o2)cn1` (stereo not shown) [Example 122, N-[[6-(5-methylpyrazine-2-carbonyl)-6-azaspiro[2.5]octan-2-yl]methyl]furo[2,3-c]pyridine-2-carboxamide] reads 2 µM.
As for `O=C(NCC1CC12CCN(C(=O)c1cc(C3CC3)n[nH]1)CC2)c1cc2ccncc2o1` (stereo not shown) [Example 123, N-[[6-(3-cyclopropyl-1H-pyrazole-5-carbonyl)-6-azaspiro[2.5]octan-2-yl]methyl]furo[2,3-c]pyridine-2-carboxamide], the IC50 is 0.083 µM.
